Earlier results in patent publication US20240139208A1, “COMBINED PHARMACEUTICAL COMPOSITION CONTAINING CDK4/6 INHIBITOR AND USE THEREOF” (CHIA TAI TIANQING PHARMACEUTICAL GROUP CO., LTD., priority 2021, published 2024).

C[C@]12CC[C@@H]3c4ccc(O)cc4C[C@@H](CCCCCCCCC[S+]([O-])CCCC(F)(F)C(F)(F)F)[C@H]3[C@@H]1CC[C@@H]2O (stereo partly drawn) [Fulvestrant, 7-α-[9-(4,4,5,5,5-pentafluoropentylsulfinyl)nonyl]estra-1,3,5-(10)-triene-3,17-β-diol]
solubility in water: insoluble
